Test results from US20250339569A1, “CARBONIC ANHYDRASE IX LIGANDS” (priority 2021, published 2025).
Where two headings read alike, the source gives them in different places.

Assays:
SK-RC-52 tumor = experiment: Biodistribution study (SPECT/CT) in SK-RC-52 tumor-bearing mice with or without gelofusine; type: in vivo, NMRI nude mice; conditions: SK-RC-52, In-111-labeled; for % remaining tumor uptake at 24 h p.i.: Mean ± SEM
[1] = Dose range finding study by intravenous route with toxicokinetics; type: in vivo, beagle dogs; conditions: for Dose-normalized AUClast: AUClast divided by dose in μg/kg; for clearance / half-life / Vd / AUC(0-t) / level at […]: male, beagle, iv, mean n = 2; for clearance / half-life / Vd: dog, plasma; for Vd: read-out: Vss; for AUC(0-t) / level at […]: dog plasma; for level at […]: read-out: C15 min
Method: The following parameters and endpoints were evaluated: mortality, clinical observations, body weights, food consumption, local reactions, clinical pathology parameters (hematology, coagulation, and clinical chemistry), organ weights, and macroscopic examinations. Both animals were sampled for toxicokinetics (TK) on each dosing occasion (i.e., on day 1, day 5, day 9 and day 13) at: pre-dose, 15 min, 30 min, 1 h, 6 h and 24 h. Blood samples were collected in K2EDTA tubes. Plasma was prepared by centrifugation (2500 g for 10 minutes, +4° C.) within 1 hour after collection, and then frozen within 1 hour after centrifugation and stored at −80° C. […] Chromatographic separation was achieved using a Waters Acquity UPLC system with a Waters Acquity HSS T3 C18 2.1×50 mm, 1.8 μm column. Chromatography was conducted at 50° C. at a flow rate of 0.7 mL/min using a mobile phase consisting of A: acetonitrile, and B: 1% formic acid in water, according to the following linear gradient: 0 to 0.1 min: 90% B; 0.1 to 4.1 min: from 90% B to 74% B; 4.1 to 4.2 min: from 74% B to 5% B; 4.2 to 4.6 min: 5% B; 4.6 to 4.7 min: from 5% B to 90% B; 4.7-5.1 min; 90% B. Detection was performed using a Sciex API6600 TOF mass spectrometer. Toxicokinetic parameters were estimated from concentration-time data using Phoenix pharmacokinetic software (version 6.4, Certara L. P.). A non-compartmental approach consistent with the bolus intravenous injection was used for parameter estimation.

[2] = Pharmacokinetic characterization in healthy mice; type: in vivo, CD-1 mice; conditions: male, CD-1, plasma, iv, mouse; for clearance: read-out: Clearance (CL); for half-life: read-out: terminal elimination half-life (converted); for Vd: read-out: volume of distribution (Vd)
Method: The pharmacokinetics of DPI-4452 after a single intravenous (i.v.) dose were investigated in healthy mice. […] Plasma and urine samples collected after dosing were analyzed using a LC-HRMS (liquid chromatography coupled with high-resolution mass spectrometry) assay method. Concentration values were used for pharmacokinetic calculations.
Male CD-1 mice (3 animals per time point and per dose level; overall, 28.2-37.6 g body weight) were administered intravenously in the tail vein in a 2 mL/kg dosing volume. Blood samples were collected in K2EDTA tubes at 5 min, 15 min, 30 min, 1 h, 2 h, 4 h, 8 h, and urine was collected over 8 hours post dose. The blood samples were kept on wet ice until plasma separation by centrifugation at room temperature; 10 min; 2500 G, which was performed within 60 min after sampling. The plasma samples were transferred into plastic tubes, frozen and stored at −80° C. until analysis.
Plasma and urine samples were analyzed by LC-HRMS after solid phase extraction, using a stable isotope-labeled internal standard (^13C6, ^15N-DPI-4452). Chromatographic separation was run on a Waters Acquity HSS T3 C18 2.1×50 mm, 1.8 μm column. Detection was achieved on a Sciex API6600 TOF mass spectrometer. The lower limit of quantification was 1.00 ng/mL in plasma and urine.
The non-compartmental (NCA) pharmacokinetic analysis of plasma concentration data was conducted using Phoenix 64 WinNonlin (Build 8.3.3.33) software. Nominal doses were used for all animals. The terminal phase half-life (T1/2) was calculated by least-squares regression analysis of the terminal linear part of the log concentration-time curve. The area under the plasma concentration-time curve (AUC) was determined with the linear trapezoidal rule for increasing values and log trapezoidal rule for decreasing values up to the last measurable concentration.

## CC(C)C[C@@H]1NC(=O)[C@H](Cc2cccc(NC(=O)CCCS(N)(=O)=O)c2)NC(=O)[C@H](CC(=O)O)NC(=O)[C@H]2CCCN2C(=O)[C@H](CCC(=O)O)NC(=O)[C@@H](NC(=O)[C@H](CCC(N)=O)NC(=O)CN2CCN(C(=O)CN3CCN(CC(=O)O)CCN(CC(=O)O)CCN(CC(=O)O)CC3)CC2)CSCc2cccc(c2)CSC[C@@H](C(N)=O)NC(=O)[C@H](CO)NC(=O)[C@H](Cc2c[nH]c3ccccc23)NC(=O)[C@H]([C@@H](C)O)NC1=O [DPI-4452, DOTA-PPAc-Gln-[Cys(3MeBn)-Glu-pro-Asp-Af3(Cpsu)-Leu-Thr-Trp-Ser-Cys]-NH2]
SK-RC-52 tumor; 4% gelofusine before
  Time to peak uptake in tumor: 4 h
  % remaining tumor uptake at 24 h p.i.: 69.6 ± 6.6%
SK-RC-52 tumor; no gelofusine
  Time to peak uptake in tumor: 1 h
  % remaining tumor uptake at 24 h p.i.: 73.3 ± 0.8%
[1]; Day 1, […] i.v.
  Dose-normalized AUClast: 1.36
[1]; Day 5, 0.08 mg/kg i.v.
  Dose-normalized AUClast: 1.46
  AUC(0-t): 117 ng·h/mL
  level at […]: 156 ng/mL
[1]; Day 9, 0.4 mg/kg i.v.
  Dose-normalized AUClast: 2.31
  clearance: 6.83 mL/min/kg
  half-life: 29.4 min
  Vd: 0.24 L/kg
  AUC(0-t): 926 ng·h/mL
  level at […]: 880 ng/mL
[1]; Day 13, 0.8 mg/kg i.v.
  Dose-normalized AUClast: 4.42
  clearance: 3.52 mL/min/kg
  half-life: 52.8 min
  Vd: 0.32 L/kg
  AUC(0-t): 3530 ng·h/mL
  level at […]: 2000 ng/mL
[1]; male beagle dogs, 25 to 800 μg/kg i.v.
  dose proportionality of exposure: exposure increased more than dose-proportionally
[1]; male beagle dogs, i.v. bolus, ascending 25, 80, 400, 800 μg/kg/day
  tolerability: well tolerated systemically and locally
[1]; Day 1, 0.025 mg/kg i.v.
  clearance: 11.7 mL/min/kg
  half-life: 15 min
  Vd: 0.22 L/kg
  AUC(0-t): 34 ng·h/mL
  level at […]: 46.8 ng/mL
[2]; i.v. 0.7 mg/kg
  AUC(0-inf): 424 ng·h/mL
  clearance: 27.5 mL/min/kg
  half-life: 16.8 min
  Vd: 0.408 L/kg
[2]; i.v. 5.5 mg/kg
  AUC(0-inf): 2820 ng·h/mL
  clearance: 32.5 mL/min/kg
  half-life: 27.9 min
  Vd: 0.455 L/kg
